Patent US6642227B2, “Inhibitors of c-Jun N-terminal kinases (JNK) and other protein kinases” (Vertex Pharmaceuticals Incorporated, priority 2001, dated 2003)

What was measured:
human Lck kinase = human Lck kinase (UniProt P06239); test: Lck inhibition assay (A: radioactivity-based or B: spectrophotometric coupled-enzyme assay); assay type: biochemical; settings: read-out: Lck Activity (Ki rating)
In short: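 Two formats. Radiometric: full-length bovine thymus Lck, poly(Glu:Tyr 4:1) 5 mg/ml, 10 μM ATP with ^33P-ATP, HEPES pH 7.6, 10 min preincubation then 20 min at 30 °C, TCA-quenched filter counting. Coupled: 50 nM recombinant human Lck, 150 μM ATP, NADH loss at 340 nm. Ki from competitive-inhibition fit.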

human Src kinase = target: T1, human Src kinase (Homo sapiens, UniProt P12931); test: Src inhibition assay (A: radioactivity-based or B: spectrophotometric coupled-enzyme assay); assay type: biochemical; settings: assay A or B not specified; inhibitor concentration not given
T1 construct: full length recombinant human Src kinase; purchased Upstate Biotechnology 14-117; host or cells: baculovirus-infected cells
Method: The compounds were evaluated as inhibitors of human Src kinase using either a radioactivity-based assay or spectrophotometric assay.
The compounds were assayed as inhibitors of full length recombinant human Src kinase (from Upstate Biotechnology, cat. no. 14-117) expressed and purified from baculo viral cells. Src kinase activity was monitored by following the incorporation of ^33p from ATP into the tyrosine of a random poly Glu-Tyr polymer substrate of composition, Glu:Tyr=4:1 (Sigma, cat. no. P-0275). The following were the final concentrations of the assay components: 0.05 M HEPES, pH 7.6, 10 mM MgCl2, 2 mM DTT, 0.25 mg/ml BSA, 10 μM ATP (1-2 uCi ^33P-ATP per reaction), 5 mg/ml poly Glu-Tyr, and 1-2 units of recombinant human Src kinase. In a typical assay, all the reaction components with the exception of ATP were pre-mixed and aliquoted into assay plate wells.
Inhibitors dissolved in DMSO were added to the wells to give a final DMSO concentration of 2.5%. The assay plate was incubated at 30° C. for 10 min before initiating the reaction with ^33P-ATP. After 20 min of reaction, the reactions were quenched with 150 μl of 10% trichloroacetic acid (TCA) containing 20 mM Na3PO4. The quenched samples were then transferred to a 96-well filter plate (Whatman, UNI-Filter GF/F Glass Fiber Filter, cat no. 7700-3310) installed on a filter plate vacuum manifold. Filter plates were washed four times with 10% TCA containing 20 mM Na3PO4 and then 4 times with methanol. 200 μl of scintillation fluid was then added to each well. The plates were sealed and the amount of radioactivity associated with the filters was quantified on a TopCount scintillation counter. The radioactivity incorporated was plotted as a function of the inhibitor concentration. The data was fitted to a competitive inhibition kinetics model to get the Ki for the compound.
The ADP produced from ATP by the human recombinant Src kinase-catalyzed phosphorylation of poly Glu-Tyr substrate was quanitified using a coupled enzyme assay (Fox et al (1998) Protein Sci 7, 2249). In this assay one molecule of NADH is oxidised to NAD for every molecule of ADP produced in the kinase reaction. The disappearance of NADH can be conveniently followed at 340 nm.
The following were the final concentrations of the assay components: 0.025 M HEPES, pH 7.6, 10 mM MgCl2, 2 mM DTT, 0.25 mg/ml poly Glu-Tyr, and 25 nM of recombinant human Src kinase. Final concentrations of the components of the coupled enzyme system were 2.5 mM phosphoenolpyruvate, 200 μM NADH, 30 μg/ml pyruvate kinase and 10 μg/ml lactate dehydrogenase.
In a typical assay, all the reaction components with the exception of ATP were pre-mixed and aliquoted into assay plate wells. Inhibitors dissolved in DMSO were added to the wells to give a final DMSO concentration of 2.5%. The assay plate was incubated at 30 C. for 10 min before initiating the reaction with 100 μM ATP. The absorbance change at 340 nm with time, the rate of the reaction, was monitored on a molecular devices plate reader. The data of rate as a function of the inhibitor concentration was fitted to compettive inhibition kinetics model to get the Ki for the compound.

T1 sequence (P12931 whole entry): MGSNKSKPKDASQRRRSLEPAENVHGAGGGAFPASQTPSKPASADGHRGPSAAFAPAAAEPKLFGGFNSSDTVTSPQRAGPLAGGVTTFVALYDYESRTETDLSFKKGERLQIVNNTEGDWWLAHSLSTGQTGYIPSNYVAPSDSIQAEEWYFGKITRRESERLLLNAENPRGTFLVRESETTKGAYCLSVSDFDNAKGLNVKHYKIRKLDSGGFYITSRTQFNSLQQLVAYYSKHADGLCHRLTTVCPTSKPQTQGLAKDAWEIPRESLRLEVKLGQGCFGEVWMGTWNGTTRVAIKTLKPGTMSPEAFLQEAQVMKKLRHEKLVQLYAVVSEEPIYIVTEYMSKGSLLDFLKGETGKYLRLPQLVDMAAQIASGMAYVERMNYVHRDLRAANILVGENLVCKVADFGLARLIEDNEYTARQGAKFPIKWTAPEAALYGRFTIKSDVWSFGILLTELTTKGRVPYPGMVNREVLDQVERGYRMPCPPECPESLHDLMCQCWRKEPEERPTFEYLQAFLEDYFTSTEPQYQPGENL

`CSc1sc(-c2ccnc(Nc3ccccc3)n2)c(-c2ccc(Cl)cc2)c1C#N` [IIa-10, 2-Methylsulfanyl-5-(2-phenylamino-pyrimidin-4-yl)-4-(4-chloro-phenyl)-thiophene-3-carbonitrile] was tested, and the Ki (human Lck kinase) was under 100 nM and the “Src Activity (percent inhibition class D-F)” value (human Src kinase) was “F (compounds having an activity designated as “F” provided a provided a percent inhibition of between 67% and 100%)”.

In the case of `CCOc1sc(-c2ccnc(Nc3ccccc3)n2)c(-c2ccc(Cl)cc2)c1C#N` [IIa-11, 2-Ethoxy-5-(2-phenylamino-pyrimidin-4-yl)-4-(4-chloro-phenyl)-thiophene-3-carbonitrile], the Ki (human Lck kinase) is reported as 100 to 1000 nM and the “Src Activity (percent inhibition class D-F)” value (human Src kinase) is reported as “F (compounds having an activity designated as “F” provided a provided a percent inhibition of between 67% and 100%)”.

`CSc1sc(-c2ccnc(Nc3ccccc3)n2)c(-c2ccc(C)cc2)c1C#N` [IIa-14, 2-Methylsulfanyl-5-(2-phenylamino-pyrimidin-4-yl)-4-p-tolyl-thiophene-3-carbonitrile] was tested, and the Ki (human Lck kinase) was under 100 nM and the “Src Activity (percent inhibition class D-F)” value (human Src kinase) was “F (compounds having an activity designated as “F” provided a provided a percent inhibition of between 67% and 100%)”.

`CCOc1sc(-c2ccnc(Nc3ccccc3)n2)c(-c2ccc(C)cc2)c1C#N` [IIa-15, 2-Ethoxy-5-(2-phenylamino-pyrimidin-4-yl)-4-p-tolyl-thiophene-3-carbonitrile] was tested, and the Ki (human Lck kinase) was under 100 nM and the “Src Activity (percent inhibition class D-F)” value (human Src kinase) was “F (compounds having an activity designated as “F” provided a provided a percent inhibition of between 67% and 100%)”.
